The test system of data set [1] is K562 cells. The data set is described as follows: MTT viability test, K562. The data set is classed as cell-based. To be noted: Homo sapiens, K562; MTT, 48 h. As for the experimental part:
CML cell line K562 CCL-243™ (BCR-ABL^+) was purchased from the ATCC® (Manassas, VA, USA). Cells were grown in RPMI 1640 medium containing HEPES (Biowest, Nuaillé, France) with 2 mM GlutaMAX (Gibco, Grand Island, NY, USA), supplemented with 10% fetal bovine serum (Sigma-Aldrich, St. Louis, MO, USA) and […] (Gibco, Grand Island, NY, USA) and 0.1 µM Vincristine (for K562-MDR1).
Cells were seeded in 96-well plates; after 24 h, medium with the appropriate drug concentration was added to each well. After 48 h, Tetrazolium Bromide (Sigma-Aldrich, St. Louis, MO, USA) was added to each well for 2–3 h. After that, cells were lysed and formazan crystals were dissolved. Absorbance was read using an iMark Microplate absorbance reader (Bio-Rad, Hercules, CA, USA). Results were calculated relative to cells treated with DMSO only. […]
Cells were seeded in 96-well plates at 7 × 10^3 cells/well in 50 µL of complete medium (for K562 or K562-MDR1) or at 50 × 10^3 cells/well in 50 µL of complete medium (CD34+ cells). After 24 hours, 50 µL of medium with the appropriate drug concentration was added to each well. The final DMSO concentration per well was 1% for K562 and K562-MDR1 and 0.1% for CD34+ cells. After 48 hours, 20 µL of Tetrazolium Bromide (Sigma-Aldrich, St. Louis, MO, USA) at a concentration of 5 mg/mL was added to each well. Cells were incubated for 2-3 hours in a cell culture incubator, and then 10% SDS with 1% HCl was added to each well to lyse the cells and dissolve the formazan crystals. Plates were […]

A short description of data set [2]: Stability of BK124.1 concentrate for injection. The data set is classed as physicochemical. To be noted: 1 mg BK124.1 in 50% Solutol HS 15/50% ethanol, 30-36 °C. The text has this:
Additional file 2: Supplementary methods
The antibodies (Ab) used in the flow cytometry and immunoblotti ng experiments are listed according to the targeted protein and the vendor. Antibodies: BD Transduction Laboratories - p38 (ref. 612288), p-p38 (ref. 612289); Cell Signalling Technologies - c-Abl (ref. 2862), Akt (pan) (C67E7) (ref. 4691), STAT5 […]
(ref. 9102); Santa Cruz Biotechnology - Lamin B1 (A11) (ref. sc-377000), JNK, (ref. sc-7345), p-JNK (ref. sc-6254); Sigma - α-tubulin (ref. T-6074). Biolegend, San Diego, CA, USA - CD34 (CD34-APC), CD38 (anti- […]
BK124.1 preparation for injection
In the first step, 50 µL of Solutol HS 15 and 50 µL of anhydrous ethanol 99.8% were added to 1 mg of BK124.1, to obtain a solution of 50% Solutol HS 15/50% ethanol. This solution was shaken (1-2 h) at 30-40 °C until BK124.1 was completely dissolved. This solution was stable for 48 hours at temperatures between 30-36 °C. This concentrate is sticky, has poor filtration and portioning properties, and so cannot be administered intravenously or intraperitoneally without dilution. Therefore, in the second step, the prepared concentrate was diluted with aqua pro injectione to obtain a concentration of 10% Solutol HS 15/10% ethanol. […]

The test system of data set [3] is K562 cells. On the set-up: method as in PMID 26902600, PMID 31487824. To be noted: chronic myelogenous (CML) K562 cells from blast crisis; cited from earlier work.
The subject of a further data set is HUVEC. On the set-up: method as in PMID 26902600, PMID 31487824. As to conditions: cited from earlier work.
Data set [4] is described as follows: Body and organ weights in K562 xenograft mice. To be noted: for Brain weight / Heart weight / Kidneys weight / Liver weight / Lung weight / Splean weight: mean ± SD, N=4.
Protocol: Eight-week-old female NOD.Cg-Prkdcscid Il2rgtm1Wjl/SzJ NSG mice (Jackson Laboratory, Bar Harbor, ME, USA) were injected subcutaneously into the dorsal fold with 1 × 10^6 K562 cells of the human chronic myeloid leukemia (CML) line in a final volume of 100 µL (0.5% of the mouse weight). On day 3 after cell administration, mice were randomly assigned to each group, and on days 4–17 of the experiment, the selected tested compounds and control solutions were administered intraperitoneally or orally. During the experiment, subcutaneous tumors and body weight were measured daily. Tumor growth during the experiment was measured with an electronic display caliper. The theoretical tumor volume [mm], was calculated according to the formula (a^2 × b) * 0.5, where a is the shorter tumor axis [mm] and b is the longer tumor axis [mm]. On day 26, the experiment was terminated: blood was collected and analyzed for cellular morphology and standard biochemistry metabolites. Tumors were weighed.
Control and treated mice were grouped according to the tested compounds and the scheme of their administrations (doses, administration frequencies, routes of administration) in the CML xenogeneic model obtained by subcutaneous transplantation of 1 × 10^6 cells of the human CML blast line K562 into mice NOD.Cg-Prkdcscid Il2rgtm1Wjl/SzJ (NSG).
Hydroxyurea K562 500 mg/kg, IP Aqua pro 1 x daily 8
Data set [5] can be described thus: Toxicity in Balb/c nude mice. The data set is classed as in vivo. The protocol:
[…] The compound blood concentration was measured 15 min, 6, 12, and 24 h post-injection. For each time point, 4 mice were sacrificed. BK124.1 concentration in the bloodstream was analyzed using mass spectrometry. Toxicology was assessed by examining physiological and morphological changes at the injection site, the appearance of internal organs (liver, heart, kidneys, and spleen), blood tests, body mass, and animal behavior.

`CCC12C(=O)C(CC)(C(c3ccccc3)=C1c1ccccc1)C1C(=O)N(CC(O)CNC(C)C)C(=O)C12` (centres unmarked) [BK124.1, 4-[2-hydroxy-3-(propan-2-ylamino)propyl]-1,7-diethyl-8,9-diphenyl-4-azatricyclo [5.2.1.02,6]dec-8-ene-3,5,10-trione]: the IC50 in the data set on K562 cells [1] was determined as 2500 nM. In addition, in data set [2], the “Time the solution was stable” value amounted to 48 h. In addition, in the data set with K562 cells [3], the “Toxicity towards human leukemia cells” value is reported as “selectively toxic”. Besides, the “Toxicity to normal cells” value in the data set on HUVEC is listed as “non-toxic”. Further, in data set [4] (20 mg/kg IP daily 14 days), the Brain weight turned out to be 0.47 ± 0.02 g, the Heart weight came out at 0.10 ± 0.00 g, the Kidneys weight was determined as 0.26 ± 0.03 g and the Liver weight worked out at 1.09 ± 0.10 g. In data set [4] (20 mg/kg IP daily 14 days), this molecule yielded a Lung weight of 0.24 ± 0.10 g and a Splean weight of 0.03 ± 0.02 g. In data set [4] (30 mg/kg IP daily 14 days), the Brain weight is 0.47 ± 0.01 g, the Heart weight came to 0.10 ± 0.02 g, the Kidneys weight amounted to 0.28 ± 0.02 g and the Liver weight is 1.27 ± 0.11 g. In data set [4] (30 mg/kg IP daily 14 days), this molecule came in with a Lung weight of 0.34 ± 0.02 g and a Splean weight of 0.03 ± 0.01 g. Also, the “Morphology or weight of internal organs (liver, spleen, kidneys, lungs, heart) versus untreated controls” value in data set [4] (doses as in Table S3) is “no changes”. Moreover, the “Total body weight course” value in data set [4] (doses as in Table S3, control mice gained mass in the last 5 days) is on record as “No such increase occurred”. The “Toxic effects in weight and internal organs' appearance” value in data set [5] (IP 40 mg/kg) is “some minor toxic effects”. Besides, the “Toxicity at the injection site” value in data set [5] (intravenous administration) is “some signs of local toxicity in the tail”.
